From patent publication US8772248B2, “Drug delivery system” (Keele University, priority 2004, dated 2014)
Blank lines part the entries; values can stand above or below the compound they belong to. Peptide text beside a SMILES is read from it.

Tests used:
[1] = system: rats; experiment: Single dose toxicity study in rat; format: in vivo; details: single oral dose 700 mg/kg
Method: Toxicity testing required about 5 g of the thiodipeptide, Ala-ΨS-Ser.tfa (trifluoroacetate salt), which was delivered to rats as test subjects.
Single oral dose of 700 mg/kg to 5 males and 5 females on day 1.
Test Substance Formulation: The dose formulation was successfully prepared using physiological saline as the vehicle. The concentration of the test substance was 140 mg/ml, dosed at a volume of 5 ml/kg, resulting in a dose of 700 mg/kg.

[2] = Resistance to hydrolysis; format: in vitro ADME
[3] = target: T1, PepT1 (Oryctolagus cuniculus, UniProt P36836); experiment: Uptake of [3H]-D-Phe-L-Gln in oocytes in competition with test compound (binding to PepT1)
T1 construct: expressed in transfected cells
T1 sequence (P36836 1-707): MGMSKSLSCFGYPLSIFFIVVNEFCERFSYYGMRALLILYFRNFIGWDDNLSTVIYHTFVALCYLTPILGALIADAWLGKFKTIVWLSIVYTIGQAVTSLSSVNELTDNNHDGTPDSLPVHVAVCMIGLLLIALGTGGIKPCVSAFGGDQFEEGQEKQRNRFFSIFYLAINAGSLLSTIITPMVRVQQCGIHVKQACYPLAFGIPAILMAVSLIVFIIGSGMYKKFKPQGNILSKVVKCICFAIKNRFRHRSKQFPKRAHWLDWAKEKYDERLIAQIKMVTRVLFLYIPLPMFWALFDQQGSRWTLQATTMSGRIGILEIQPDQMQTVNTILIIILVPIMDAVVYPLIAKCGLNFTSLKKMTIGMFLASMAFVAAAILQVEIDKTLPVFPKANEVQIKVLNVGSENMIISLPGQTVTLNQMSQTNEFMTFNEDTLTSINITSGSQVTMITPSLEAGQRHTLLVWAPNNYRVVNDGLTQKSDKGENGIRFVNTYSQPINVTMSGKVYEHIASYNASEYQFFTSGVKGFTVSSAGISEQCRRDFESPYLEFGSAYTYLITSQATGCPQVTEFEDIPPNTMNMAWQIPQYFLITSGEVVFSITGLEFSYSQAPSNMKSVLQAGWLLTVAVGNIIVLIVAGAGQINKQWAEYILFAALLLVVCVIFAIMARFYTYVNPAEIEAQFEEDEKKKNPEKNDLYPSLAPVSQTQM
Method: Uptake of the radiolabelled dipeptide [^3H]-D-Phe-L-Gln (17.4 Ci/mmole, custom synthesised, Cambridge Research Biochemicals, Stockton-on-Tees, UK) in competition with the compounds to be tested, was performed as previously described (Meredith et al. J. Physiol., 1998, 512, 629-634). Briefly, 5 oocytes were incubated at room temperature in 100 μL of uptake medium (95 mM NaCl, 2 mM KCl, 1 mM CaCl2, 0.42 mM MgCl2, 10 mM Tris/Mes pH 5.5) with tracer (0.4 μM) [^3H]-D-Phe-L-Gln with or without a test compound at the appropriate concentration. After incubation for one hour, the oocytes were washed sequentially five times in 1 mL of ice-cold uptake medium, then lysed individually with 100 μL 2% (w/v) SDS in vials, and liquid scintillation counted.
Quantitative binding data has been produced for a large number of thiodipeptide carriers with attached drug surrogates using the methodology described in Meredith et al., 1998, discussed supra, and is shown in Table 2 below, and in FIG. 7. Each of the thiopeptide carrier molecules shown is in accordance with the present invention, with each compound comprising a serine amino acid side chain group on the second amino acid residue.

[4] = target: T1, PepT1; experiment: Efflux / trans-stimulation assay in PepT1-expressing oocytes injected with [3H]-D-Phe-L-Gln; format: cell-based
Method: Efflux experiments were performed as described in Temple et al., J. Biol. Chem., 1998, 273, 20-22. Briefly, PepT1-expressing oocytes were micro-injected with 4.6 nl of [^3H]-D-Phe-L-Gln (17.4 Ci/mmole) and allowed to recover for 15 minutes. 5 oocytes were incubated in […] uptake solution (pH 5.5) containing a potential substrate (i.e. a thiodipeptide-drug analogue conjugate) at 10 mM, with a negative control (i.e. uptake solution pH 5.5) and a positive control (i.e. 20 mM dipeptide Gly-Gln in pH 5.5 uptake solution). After 90 minutes incubation at room temperature, 50 μL of the medium was removed and placed in a scintillation vial for counting. The oocytes were washed sequentially five times in 1 mL of ice-cold uptake medium, then lysed individually with 100 μL 2% (w/v) SDS in vials, and liquid scintillation counted.
Efflux of the radiolabelled dipeptide is a positive indication of active transport via PepT1.
In the assays carried out, the dipeptide Gly-Gln (which is known to be transported by PepT1) caused about 30% of labelled D-Phe-L-Gln to remain in the oocytes. At the same concentration, the test substrates (the conjugates being tested) are assessed as follows:—
<(measureable efflux, but less transport than Gly-Gln control, with ≧50% of D-Phe-L-Gln remaining)
=(efflux similar to the effect of Gly-Gln, i.e. 25-50% of labelled D-Phe-L-Gln remaining)
>(more efflux than Gly-Gln, i.e. <25% of labelled D-Phe-L-Gln remaining)
There are no reports in the literature of thiodipeptides attached to drugs or drug analogues, and therefore no examples of such conjugates being actively transported.

[5] = target: T2, PepT1 (Rattus norvegicus, UniProt P51574); experiment: In vivo transport across the gut wall, rat jejenum, HPLC analysis; details: 1 mM
T2 construct: using rat jejenum; from tissue; host or cells: rat jejunum
T2 sequence (P51574 1-710): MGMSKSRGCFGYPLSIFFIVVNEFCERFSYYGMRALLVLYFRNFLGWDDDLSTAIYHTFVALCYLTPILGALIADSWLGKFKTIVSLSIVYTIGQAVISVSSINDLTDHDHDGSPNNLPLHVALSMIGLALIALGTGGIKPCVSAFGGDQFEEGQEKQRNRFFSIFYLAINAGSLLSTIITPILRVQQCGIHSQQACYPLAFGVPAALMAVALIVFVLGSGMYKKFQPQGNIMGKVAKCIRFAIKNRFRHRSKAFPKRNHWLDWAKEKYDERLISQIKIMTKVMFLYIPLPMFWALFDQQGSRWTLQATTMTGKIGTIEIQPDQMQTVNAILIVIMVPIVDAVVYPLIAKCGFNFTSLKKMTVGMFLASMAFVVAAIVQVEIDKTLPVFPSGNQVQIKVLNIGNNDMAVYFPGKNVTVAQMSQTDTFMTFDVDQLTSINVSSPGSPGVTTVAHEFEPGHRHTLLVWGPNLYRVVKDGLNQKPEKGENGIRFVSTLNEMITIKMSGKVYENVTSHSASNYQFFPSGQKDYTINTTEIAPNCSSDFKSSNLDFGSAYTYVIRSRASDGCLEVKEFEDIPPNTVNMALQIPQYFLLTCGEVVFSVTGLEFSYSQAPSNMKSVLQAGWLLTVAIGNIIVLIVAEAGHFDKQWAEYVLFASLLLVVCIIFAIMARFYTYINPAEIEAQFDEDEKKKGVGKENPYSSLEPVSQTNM
Text: (§1) In vivo transport experiments, using the methodology described in Lister et al. (J. Physiol., 1995, 484.1, 173-182), were used to investigate the importance of the thio group in the compounds according to the invention during transport of thiopeptides across the gut wall. […] For the purposes of this experiment, this thiopeptide was not conjugated to a drug analogue molecule. Then, using rat jejenum, they carried out direct measurements of transport of this test thiopeptide across the gut wall. […]

[6] = system: PepT1; experiment: as above
Text: as §1

Compound: CC(N)C(=S)N[C@@H](CO)C(=O)O.O=C(O)C(F)(F)F (stereo partly shown) [Ala-ΨS-Ser.tfa]
Intercurrent deaths ([1]; 15 days): no intercurrent deaths
Clinical observations ([1]; daily for 15 days): no treatment related findings
Bodyweights ([1]; day 15): All animals had gained weight
Macroscopic findings at scheduled termination ([1]; day 15): no macroscopic findings

substrate for PepT1 [3]: substrate for PepT1
Ki ([3]; competition with 0.4 μM [3H]-D-Phe-L-Gln, oocytes, pH 5.5, one hour): 1070 µM
Compound: CC(N)C(=S)NC(COCc1ccccc1)C(=O)O [D-Ala-ΨS-Ser(OBn)]
resistance to hydrolysis [2]: more hydrolysis resistant than its corresponding L-isomer

cpm remaining in oocytes ([4]; 10 mM, average from 5 experiments): 1347 (+/−126) cpm
efflux ([4]; at 10 mM): 72%
labelled D-Phe-L-Gln remaining in the oocytes ([4]; positive control Gly-Gln, pH 5.5, 90 minutes): about 30%
Compound: NCC(=O)N[C@@H](CCC(N)=O)C(=O)O [Gly-Gln] (H-Gly-Gln-OH)

transport rate relative to control dipeptide D-Phe-L-Gln [5]: about 13 times
resistance to peptidases of the small intestine [6]: resistant to the peptidases
Compound: C[C@H](NC(=S)[C@@H](N)Cc1ccccc1)C(=O)O [thiopeptide analogue of L-Phe-L-Ala, Phe-ΨS-Ala]
transport rate [5]: 3.09 (+/−0.047) micromol/min/g of whole dry intestine
